As usually defined, the EC50 is the midpoint of the concentration-response curve. What is called IC50 is the concentration at which inhibition is half-maximal.

Series [1] is described as follows: Permeability by PAMPA method. Particulars: read-out: permeability. Type of series: ADME. Background: In PAMPA a lipid-coated filter parts donor from acceptor wells.
Series [2] concerns the target T1, Bile acid receptor (Mus musculus) (UniProt Q60641).
T1 sequence (whole entry): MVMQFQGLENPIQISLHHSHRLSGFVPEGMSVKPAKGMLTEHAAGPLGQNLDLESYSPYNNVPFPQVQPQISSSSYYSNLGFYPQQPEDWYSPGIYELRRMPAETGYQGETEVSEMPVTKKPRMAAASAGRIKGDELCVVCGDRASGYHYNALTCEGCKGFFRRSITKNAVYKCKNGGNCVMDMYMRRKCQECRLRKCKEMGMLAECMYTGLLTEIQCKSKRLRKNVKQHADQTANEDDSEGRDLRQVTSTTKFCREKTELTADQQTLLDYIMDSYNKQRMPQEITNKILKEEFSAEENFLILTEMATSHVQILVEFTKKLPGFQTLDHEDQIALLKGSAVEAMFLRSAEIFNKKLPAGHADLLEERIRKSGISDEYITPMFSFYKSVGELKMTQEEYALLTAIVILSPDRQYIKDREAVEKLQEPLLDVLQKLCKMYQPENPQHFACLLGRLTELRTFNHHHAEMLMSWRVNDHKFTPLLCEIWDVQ
The series can be described thus: Agonist activity at mouse chimeric FXR assessed as receptor transactivation by luciferase transcriptional reporter gene assay relative to GW-4064. In kind it is functional. Further details: concentration or dose not given beside the values. (A reporter such as luciferase makes a cellular process visible.)

Series [3] concerns the target T2, Bile acid receptor (Homo sapiens) (UniProt Q96RI1).
T2 sequence (whole entry): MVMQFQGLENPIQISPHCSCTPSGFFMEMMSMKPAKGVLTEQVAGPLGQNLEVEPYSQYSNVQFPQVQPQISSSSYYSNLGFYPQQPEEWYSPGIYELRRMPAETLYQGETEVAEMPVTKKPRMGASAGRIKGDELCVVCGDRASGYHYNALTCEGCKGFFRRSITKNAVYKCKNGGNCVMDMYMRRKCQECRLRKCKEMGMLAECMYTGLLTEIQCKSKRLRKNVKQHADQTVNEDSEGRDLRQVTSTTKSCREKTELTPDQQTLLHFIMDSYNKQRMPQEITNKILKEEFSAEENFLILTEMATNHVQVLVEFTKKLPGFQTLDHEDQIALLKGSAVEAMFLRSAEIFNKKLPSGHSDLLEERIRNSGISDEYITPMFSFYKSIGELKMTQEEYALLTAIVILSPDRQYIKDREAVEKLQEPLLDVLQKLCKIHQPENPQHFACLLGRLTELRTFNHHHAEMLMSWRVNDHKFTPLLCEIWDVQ
The series can be described thus: Agonist activity at chimeric FXR assessed as receptor transactivation by luciferase transcriptional reporter gene assay relative to GW-4064. In kind it is functional. Details: concentration or dose not given beside the values.

Series [4] addresses T3, Bile acid receptor (Mus musculus, UniProt Q60641).
T3 sequence (Q60641 whole entry): T1 sequence (whole entry)
The series can be described thus: Agonist activity at mouse chimeric FXR assessed as receptor transactivation by luciferase transcriptional reporter gene assay. Type of series: functional.

Series [5] concerns the target T4, Bile acid receptor (Homo sapiens, UniProt Q96RI1).
T4 sequence (Q96RI1 whole entry): T2 sequence (whole entry)

Series [6] concerns the target T4, Bile acid receptor. The series can be described thus: Displacement of radioligand from human FXR by scintillation proximity assay. In general terms: In a scintillation proximity assay essentially only radioactivity close to the scintillant gives light.

SMILES strings stand for the structures. Where only a bound is given, the exact number is not on record here.

On to `Cc1cc(OCc2c(-c3c(Cl)cncc3Cl)noc2C(C)C)ccc1-c1ccc2c(C(=O)O)cn(C)c2c1`, for which, in series [1], the Papp was 0.19 ×10⁻⁶ cm/s. Further, the Activity in series [2] was determined as 71%; in series [3], 38%. Moreover, the EC50 at Bile acid receptor [4] came to 3 µM; at Bile acid receptor [5], 0.9 µM.
In the case of `COc1ccc(Cl)c(-c2noc(C(C)C)c2COc2ccc(-c3ccc4c(C(=O)O)cn(C)c4c3)c(C)c2)n1`, the Papp in series [1] was 0.7 ×10⁻⁶ cm/s. In addition, the IC50 on Bile acid receptor [6] was determined as 0.31 µM. Also, the results for the Activity in series [2] and in series [3] were 12% and 23%, respectively. Besides, the EC50 at Bile acid receptor [4] and at Bile acid receptor [5] was 2 µM in each case.
On Bile acid receptor [6], `Cc1cc(OCc2c(-c3cc[nH]c(=O)c3Cl)noc2C(C)C)ccc1-c1ccc2c(C(=O)O)cn(C)c2c1` yielded an IC50 of 1.1 µM. Also, the Activity in series [2] worked out at 63.3%; in series [3], 58.5%. Moreover, the EC50 at Bile acid receptor [4] stood at 7 µM; on Bile acid receptor [5], 5 µM.
The matching figures for `COc1ccccc1-c1noc(C(C)C)c1COc1ccc(/C=C/c2cccc(C(=O)O)c2)c(Cl)c1`: 0.25 µM, 19.8%, 54.3%, 10 µM and 10 µM.
In the same order, the values of `Cc1cc(OCc2c(-c3ccn(C)c(=O)c3Cl)noc2C(C)C)ccc1-c1ccc2c(C(=O)O)cn(C)c2c1` are 1.72 µM, 17%, 12%, 6 µM and 7 µM.
The matching figures for `Cc1cc(OCc2c(-c3c(Cl)cn(C)c(=O)c3Cl)noc2C(C)C)ccc1-c1ccc2c(C(=O)O)cn(C)c2c1`: 2.75 µM, 15%, 9%, 11 µM and 12 µM.
Take `Cc1cc(OCc2c(-c3c(Cl)c[n+]([O-])cc3Cl)noc2C(C)C)ccc1-c1ccc2c(C(=O)O)cn(C)c2c1`: in series [1], the Papp stood at 587 ×10⁻⁶ cm/s. At Bile acid receptor [6], this molecule returned an IC50 of 0.045 µM. Also, the Activity in series [2] was 88.5%; in series [3], 53.7%. The EC50 at Bile acid receptor [4] was 0.2 µM; on Bile acid receptor [5], 0.102 µM.
On to `CC(C)c1onc(-c2c(Cl)cccc2Cl)c1COc1ccc(/C=C/c2cccc(C(=O)O)c2)c(Cl)c1`, for which the Activity in series [3] came to 100%. Besides, the EC50 on Bile acid receptor [4] was found to be 2 µM.
`Cc1cc(OCc2c(-c3c(Cl)ccc(=O)n3C)noc2C(C)C)ccc1-c1ccc2c(C(=O)O)cn(C)c2c1` returned an IC50 at Bile acid receptor [6] of 0.235 µM. Further, the Activity in series [2] turned out to be 39%; in series [3] it was 27%. Further, the EC50 at Bile acid receptor [4] and on Bile acid receptor [5] was 4 µM throughout.
In the case of `Cc1cc(OCc2c(-c3[nH]c(=O)ccc3Cl)noc2C(C)C)ccc1-c1ccc2c(C(=O)O)cn(C)c2c1`, the IC50 at Bile acid receptor [6] came out at 4.13 µM. The Activity in series [2] came to 8%; in series [3] it was 0%. Further, on Bile acid receptor [4], the EC50 is 18 µM.
Turning to `CC(C)c1onc(-c2ccc(S(C)(=O)=O)cc2Cl)c1COc1ccc(/C=C/c2cccc(C(=O)O)c2)c(Cl)c1`, on Bile acid receptor [6], the IC50 came to 0.17 µM. Further, the Activity in series [2] and in series [3] was 0% in each case. The concentration giving a half-maximal response (EC50) on Bile acid receptor [4] and at Bile acid receptor [5] was above 10 µM in each case.
In the case of `CC(C)c1onc(-c2c(Cl)cncc2Cl)c1COc1ccc(/C=C/c2cccc(C(=O)O)c2)c(Cl)c1`, in series [1], the Papp turned out to be 0.09 ×10⁻⁶ cm/s. At Bile acid receptor [6], this molecule had an IC50 of 0.69 µM. In addition, the Activity in series [2] is 48%; in series [3] it was 59.4%. Also, the results for the EC50 at Bile acid receptor [4] and at Bile acid receptor [5] were 11 µM and 9 µM, respectively.
